Legend:
SmtB = molecular target: T1, SmtB (Synechococcus elongatus, UniProt P30340); test: SmtB-regulated in vitro transcription of InvadeR with TMSD fluorescence output; assay type: biochemical; details: improved smtO-hairpin-InvadeR design, low background signal
T1 construct: 6xHis (C); made in house; host or cells: E. coli Rosetta 2(DE3)pLysS, pET-28c backbone (pJBL725)
T1 sequence (P30340 with tags, fused parts or gaps): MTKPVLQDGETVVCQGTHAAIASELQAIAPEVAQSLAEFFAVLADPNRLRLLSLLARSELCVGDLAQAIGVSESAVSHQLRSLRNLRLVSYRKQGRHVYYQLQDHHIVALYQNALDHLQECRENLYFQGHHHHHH
Description: (§1) In addition to TetR, we chose TtgR [44] and SmtB [45] as representative aTFs of the MarR family and SmtB/ArsR family, respectively. We placed the cognate operator sequence of each aTF 2-bp downstream of the T7 promoter and immediately upstream of the InvadeR sequences (FIG. 4a-c). When tetracycline was used to induce TetR-regulated reactions, we observed a strong and robust fluorescent signal visible in ˜10 minutes (FIG. 4d, FIG. 13a). […] We note that we observed a slight decrease in the induction speed from the TtgR-regulated reactions compared to that of the TetR-regulated reactions, likely due to the reduced ttgO DNA template concentration needed to accommodate TtgR's relatively weak binding affinity to its operator sequence.
We were immediately successful in adapting the system to TetR and TtgR (FIG. 4a, b). […]
(§2) Regulated IVT reactions additionally included a purified aTF at the indicated concentration and were equilibrated at 37° C. for ˜10 minutes. Immediately prior to plate reader measurements, 2 ng of T7 RNAP and, optionally, a ligand at the indicated concentration were added to the reaction. Reactions were then characterized on a plate reader as described in Plate reader quantification and micromolar equivalent fluorescein (MEF) standardization.

TetR = molecular target: T2, TetR (Escherichia coli, UniProt P04483); test: biochemical
T2 construct: made in house; host or cells: E. coli Rosetta 2(DE3)pLysS, pET-28c backbone (pJBL701)
Description: To test if this spacing remained important in the TMSD platform, we used TetR as our model aTF to determine the optimum spacing for efficient repression in the presence of TetR and efficient transcription in the absence of TetR [41]. We used the native sequence that follows the canonical T7 RNAP promoter as a spacer in 2-bp increments from 0 to 10-bp, immediately followed by the tetO sequence and InvadeR sequence (FIG. 3a). IVT reactions were set up using 50 nM DNA template with or without purified recombinant TetR protein in 100-fold excess of the DNA template. […]
Using the 2-bp spacer, we next determined whether TetR can be de-repressed with its cognate ligand, anhydrotetracycline (aTc) to allow transcription of InvadeR (FIG. 3c). […]
Homemade IVT reactions were set up by adding the following components listed at their final concentration: IVT buffer (40 mM Tris-HCl pH 8, 8 mM MgCl2, 10 mM DTT, 20 mM NaCl, and 2 mM spermidine), 11.4 mM NTPs pH 7.5, 0.3 U thermostable inorganic pyrophosphatase (#M0296S, New England Biolabs), transcription template, DNA gate(s) and MilliQ ultrapure H2O to a total volume of 20 μL. […] Immediately prior to plate reader measurements, 2 ng of T7 RNAP and, optionally, a ligand at the indicated concentration were added to the reaction.

TtgR = molecular target: T3, TtgR (Pseudomonas putida, UniProt Q88N29); test: TtgR-regulated in vitro transcription of InvadeR with TMSD fluorescence output; assay type: biochemical; details: TtgR-regulated reactions, with versus without ligand
T3 construct: made in house; host or cells: E. coli Rosetta 2(DE3)pLysS, pET-28c backbone (pJBL721)
T3 sequence (Q88N29 other isoform, or with tags, fused parts or gaps): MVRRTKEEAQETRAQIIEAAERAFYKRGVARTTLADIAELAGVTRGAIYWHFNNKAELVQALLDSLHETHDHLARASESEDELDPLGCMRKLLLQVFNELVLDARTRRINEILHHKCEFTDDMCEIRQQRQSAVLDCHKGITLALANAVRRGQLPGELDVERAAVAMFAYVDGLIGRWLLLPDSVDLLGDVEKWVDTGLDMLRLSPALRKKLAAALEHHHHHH
Description: as §1, §2

O=S(=O)([O-])[O-].[Zn+2] [ZnSO4]
fluorescence activation by ligand (SmtB): clear activation

Cc1c2c(c(O)c3c(O)cccc13)C(=O)[C@]1(O)C(=O)C(C(N)=O)=C(O)[C@@H](N(C)C)[C@@H]1C2 [aTc, anhydrotetracycline]
EC50 (TetR): 2.5 to 5 µM

O=C1C[C@@H](c2ccc(O)cc2)Oc2cc(O)cc(O)c21 [naringenin]
fluorescence activation by ligand (TtgR): robust fluorescence activation only in the presence of the ligand
